Measurements: patent US6339081B1, “Composition and use” (priority 1996, dated 2002)

Key:
Type in all cases: cell-based
mixed bacterial culture = experiment: Preservation of unpreserved latex, repeated challenge with mixed bacterial culture; design: key to Viable bacteria, Third inoculum (days) 5 / Viable bacteria, Third inoculum (days) 7 / Viable bacteria, First inoculum (days) 3 / Viable bacteria, First inoculum (days) 5 / Viable bacteria, First inoculum (days) 7 / Viable bacteria, Second inoculum (days) 3 / Viable bacteria, Second inoculum (days) 5 / Viable bacteria, Second inoculum (days) 7 / Viable bacteria, Third inoculum (days) 3: C is confluent growth over the surface; − is no visible colonies; + is few visible colonies; ++ is clusters of discreet colonies; settings: latex
Method: Aliquots (25 parts) of unpreserved latex containing 50% by weight solids of a copolymer of 2-ethylhexylacrylate/acrylic acid at pH 8.5 were formulated with zinc acetate and the 2:1 zinc complex of 3-hydroxy4-methyl thiazol-2(3H)-thione in the amounts shown in Table 1 below. After formulation, each aliquot was stored at 20° C. for 1 week prior to inoculation with a mixed bacterial culture.
The bacterial culture was prepared by culturing the following seven bacteria in nutrient agar for 24 hours at 30° C.
Each of the individual bacterium was prepared at a concentration of 10^8 cells/ml in quarter strength Ringers solution by means of a Thoma counting chamber. The mixed inoculum was prepared by mixing equal volumes of the cultures containing the individual bacterium.
The latex aliquots were repeatedly inoculated at 0, 7 and 14 day intervals with 0.5 ml mixed inoculum (2×10^6 cells/ml) and incubated at 30° C. The number of viable bacteria was determined by streaking a small portion of each aliquot of latex onto nutrient agar after 3, 5 and 7 days followed by visible assessment after incubation for 2 days at 30° C.

[1] = test system: contaminated matt paint millbase; experiment: Viable cells in contaminated matt paint millbase; design: key to Viable cells after (days) 5 / Viable cells after (days) 7 / Viable cells after (days) 14: C is confluent growth over the surface; − is no visible colonies; + is few visible colonies; ++ is clusters of discreet colonies
Method: 25 ml Aliquots of a contaminated matt paint millbase were formulated with the 2:1 zinc complex of 3-hydroxy-4-methylthiazol-2(3H)-thione and zinc acetate as shown in Table 2 below. The number of variable cells was determined by streaking a small portion of each aliquot of millbase onto nutrient agar after 5, 7 and 14 days. The number of cells was determined by visible assessment following incubation for 2 days at 30° C.

[2] = test system: Pseudomonas aeruginosa NCIB 10421; experiment: MIC and Fractional Inhibitory Concentration (FIC) in microtitre array; settings: single component
Method: The gram negative bacterium, Pseudomonas aeruginosa NCIB 10421 was grown in nutrient broth to stationary phase during 18 hours and contained approximately 10^9 organisms/ml. A 0.1% (v/v) inoculum was used to seed fresh nutrient broth and 100 μl was then added to each well of a microtitre plate, except for the first well which contained 200 μl.
Solutions of zinc acetate (ZnAc) and the 2:1 zinc complex of 3-hydroxy-4-methylthiazol-2(3H)-thione (ZHMT), respectively, were prepared in nutrient broth at twice the final concentration to be used in the microtitre array. A microtitre array was prepared with concentration of zinc acetate and ZHMT from twice the MIC down to zero concentration in a 10×10 array. Since the array contains only 96 wells, the highest and lowest concentration of the zinc acetate and ZHMT were omitted. The dilution of the ZHMT was doubled across the ordinate axis of the array by transferring 100 μl aliquots so that the final volume in each well was 200 μl. The microtitre plate was then incubated for 16 to 24 hours at 37° C. and the presence of bacterial growth assessed visually.
The FIC is defined as the sum of the fractional inhibitory concentration of each component. The FIC of the individual component is the ratio of the concentration of the component in the binary mixture divided by its MIC.

mixed inoculum = experiment: Preservation of styrene-acrylic emulsion paint, challenge with mixed inoculum; design: key to Bacterial growth, First Inoculum Days 4 / Bacterial growth, First Inoculum Days 7 / Bacterial growth, Second Inoculum Days 4 / Bacterial growth, Second Inoculum Days 7 / Bacterial growth, Second Inoculum Days 14 / Bacterial growth, Third Inoculum Days 4 / Bacterial growth, Third Inoculum Days 7 / Bacterial growth, Third Inoculum Days 21: − = no growth (no visible colonies); + = light growth (a few visible colonies); ++ = moderate growth (discrete colonies visible, some coalescence); +++ = dense, confluent growth (coalescing colonies visible throughout streak); settings: for Bacterial growth, First Inoculum Days 4 / Bacterial growth, First Inoculum Days 7 / Bacterial growth, Second Inoculum Days 4 / Bacterial growth, Second Inoculum Days 7 / Bacterial growth, Second Inoculum Days 14 / Bacterial growth, Third Inoculum Days 4 / Bacterial growth, Third Inoculum Days 7 / Bacterial growth, Third Inoculum Days 21: emulsion paint
Method: An inoculum was prepared containing the following micro-organisms:
Each of the individual bacterium was cultured in nutrient agar and incubated at 30° C. for 24 hours followed by suspension in quarter strength Ringers solution by means of a Thoma countering chamber to give 10^8 cells/ml. A mixed inoculum was prepared by combining equal volumes.
An aliquot of the starch containing the ZHMT, and optionally zinc acetate, was inoculated weekly with 0.5 ml of the mixed inoculum on three occasions to give 2×10^6 cells/ml. The aliquots were then incubated at 30° C. and examined for bacterial growth by streaking a small sample onto nutrient agar and incubating at 30° C. for 2 days prior to visual examination.
Aliquots of a styrene-acrylic emulsion paint were treated with the 2:1 zinc complex of 3-hydroxy-4-methylthiazol-2(3H)-thione (ZHMT) optionally containing zinc acetate (ZnAc) or zinc oxide (ZnO). These aliquots were challenged with the mixed inoculum described in Example 5 and examined for bacterial growth as described in this previous example.

[3] = Amount 25 ppm of each component present
[4] = Amount 50 ppm of each component present
[5] = Amount 100 ppm of each component present
[6] = Amount 200 ppm of each component present

## Cc1csc(=S)n1[O-].Cc1csc(=S)n1[O-].[Zn+2] [ZHMT, 2:1 zinc complex of 3-hydroxy-4-methylthiazol-2(3H)-thione]
Mixed bacterial culture; especially after repeated challenge
  activity in the presence of both zinc salts: significantly enhanced
Mixed bacterial culture; [3]
  Viable bacteria, First inoculum (days) 3: −
  Viable bacteria, First inoculum (days) 5: −
  Viable bacteria, First inoculum (days) 7: −
  Viable bacteria, Second inoculum (days) 3: C
  Viable bacteria, Second inoculum (days) 5: C
  Viable bacteria, Second inoculum (days) 7: C
  Viable bacteria, Third inoculum (days) 3: C
  Viable bacteria, Third inoculum (days) 5: C
  Viable bacteria, Third inoculum (days) 7: C
Mixed bacterial culture; [4]
  Viable bacteria, First inoculum (days) 3: ++
  Viable bacteria, First inoculum (days) 5: −
  Viable bacteria, First inoculum (days) 7: −
  Viable bacteria, Second inoculum (days) 3: ++
  Viable bacteria, Second inoculum (days) 5: +
  Viable bacteria, Second inoculum (days) 7: +
  Viable bacteria, Third inoculum (days) 3: C
  Viable bacteria, Third inoculum (days) 5: C
  Viable bacteria, Third inoculum (days) 7: C
Mixed bacterial culture; [5]
  Viable bacteria, First inoculum (days) 3: ++
  Viable bacteria, First inoculum (days) 5: −
  Viable bacteria, First inoculum (days) 7: −
  Viable bacteria, Second inoculum (days) 3: ++
  Viable bacteria, Second inoculum (days) 5: +
  Viable bacteria, Second inoculum (days) 7: −
  Viable bacteria, Third inoculum (days) 3: ++
  Viable bacteria, Third inoculum (days) 5: ++
  Viable bacteria, Third inoculum (days) 7: ++
Mixed bacterial culture; [6]
  Viable bacteria, First inoculum (days) 3: +
  Viable bacteria, First inoculum (days) 5: −
  Viable bacteria, First inoculum (days) 7: −
  Viable bacteria, Second inoculum (days) 3: ++
  Viable bacteria, Second inoculum (days) 5: +
  Viable bacteria, Second inoculum (days) 7: −
  Viable bacteria, Third inoculum (days) 3: ++
  Viable bacteria, Third inoculum (days) 5: ++
  Viable bacteria, Third inoculum (days) 7: ++
[1]; [3]
  Viable cells after (days) 5: C
  Viable cells after (days) 7: C
  Viable cells after (days) 14: C
[1]; [4]
  Viable cells after (days) 5: C
  Viable cells after (days) 7: C
[2]; nutrient broth, 16 to 24 hours at 37° C.
  Minimum Inhibitory Concentrations (MIC): 32 ppm
[2]; relative conc. 1
  FIC: 1
Mixed inoculum; Conc. 10 (ppm ZHMT)
  Bacterial growth, First Inoculum Days 4: −
  Bacterial growth, First Inoculum Days 7: −
  Bacterial growth, Second Inoculum Days 4: +++
  Bacterial growth, Second Inoculum Days 7: +++
  Bacterial growth, Second Inoculum Days 14: +++
  Bacterial growth, Third Inoculum Days 4: +++
  Bacterial growth, Third Inoculum Days 7: +++
  Bacterial growth, Third Inoculum Days 21: +++
Mixed inoculum; Conc. 25 (ppm ZHMT)
  Bacterial growth, First Inoculum Days 4: −
  Bacterial growth, First Inoculum Days 7: −
  Bacterial growth, Second Inoculum Days 4: +++
  Bacterial growth, Second Inoculum Days 7: +++
  Bacterial growth, Second Inoculum Days 14: +++
  Bacterial growth, Third Inoculum Days 4: +++
  Bacterial growth, Third Inoculum Days 7: +++
  Bacterial growth, Third Inoculum Days 21: +++
Mixed inoculum; Conc. 50 (ppm ZHMT)
  Bacterial growth, First Inoculum Days 4: −
  Bacterial growth, First Inoculum Days 7: −
  Bacterial growth, Second Inoculum Days 4: +++
  Bacterial growth, Second Inoculum Days 7: +++
  Bacterial growth, Second Inoculum Days 14: +++
  Bacterial growth, Third Inoculum Days 4: +++
  Bacterial growth, Third Inoculum Days 7: +++
  Bacterial growth, Third Inoculum Days 21: +++
Mixed inoculum; Conc. 100 (ppm ZHMT)
  Bacterial growth, First Inoculum Days 4: −
  Bacterial growth, First Inoculum Days 7: −
  Bacterial growth, Second Inoculum Days 4: +++
  Bacterial growth, Second Inoculum Days 7: +++
  Bacterial growth, Second Inoculum Days 14: +++
  Bacterial growth, Third Inoculum Days 4: +++
  Bacterial growth, Third Inoculum Days 7: +++
  Bacterial growth, Third Inoculum Days 21: +++
Mixed inoculum; Conc. 200 (ppm ZHMT)
  Bacterial growth, First Inoculum Days 4: −
  Bacterial growth, First Inoculum Days 7: −
  Bacterial growth, Second Inoculum Days 4: ++
  Bacterial growth, Second Inoculum Days 7: ++
  Bacterial growth, Second Inoculum Days 14: ++
  Bacterial growth, Third Inoculum Days 4: +++
  Bacterial growth, Third Inoculum Days 7: +++
  Bacterial growth, Third Inoculum Days 21: +++
Mixed inoculum; styrene-acrylic emulsion paint
  ZHMT level at which the paint is preserved: > 200 ppm
